Legend:
Assay in all cases: relative viability (nuclei count vs DMSO), 5 days (fraction); higher = more cells survive
[1] = compound: CC1CC(=O)N(C2=CN=C(N=C2N1C3CCCC3)NC4=C(C=C(C=C4)C(=O)NC5CCN(CC5)C)OC)C [NPK76-II-72-1] + Nc1ncn([C@H]2C[C@H](O)[C@@H](CO)O2)c(=O)n1 [Decitabine] (partner 2 µM)
Procedure, shortened: (§1)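 Lung cancer cell lines were seeded in 1536-well plates and dosed by pin tool the next day, with either a single drug or a fixed anchor-drug dose combined with five library-drug doses (not always all listed) spaced in √10 steps. Five days later, one step fixed the cells and stained their nuclei (final 0.05% Triton X-100, 1% formaldehyde, 1 ug/ml Hoechst), and nuclei were counted on 4× images. Relative viability is the nuclei count in treated wells divided by the count in vehicle wells, and each value is the median of duplicate plates.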

[2] = compound: CC1CC(=O)N(C2=CN=C(N=C2N1C3CCCC3)NC4=C(C=C(C=C4)C(=O)NC5CCN(CC5)C)OC)C [NPK76-II-72-1] + O=C(CCCCCCC(=O)Nc1ccccc1)NO [Vorinostat] (partner 1 µM)
Procedure, shortened: as §1

BI-2536 + Lapatinib = compound: CC[C@@H]1C(=O)N(C)c2cnc(Nc3ccc(C(=O)NC4CCN(C)CC4)cc3OC)nc2N1C1CCCC1 [BI-2536] + CS(=O)(=O)CCNCc1ccc(-c2ccc3ncnc(Nc4ccc(OCc5cccc(F)c5)c(Cl)c4)c3c2)o1 [Lapatinib] (partner 2 µM)
Procedure, shortened: as §1

BI-2536 + Alpelisib = compound: CC[C@@H]1C(=O)N(C)c2cnc(Nc3ccc(C(=O)NC4CCN(C)CC4)cc3OC)nc2N1C1CCCC1 [BI-2536] + Cc1nc(NC(=O)N2CCC[C@H]2C(N)=O)sc1-c1ccnc(C(C)(C)C(F)(F)F)c1 [Alpelisib] (partner 2 µM)
Procedure, shortened: as §1

| Cell Line | relative viability ([1]; first compound 0.01 µM) | relative viability ([1]; first compound 0.03162 µM) | relative viability ([1]; first compound 0.1 µM) | relative viability ([1]; first compound 0.3162 µM) | relative viability ([1]; first compound 1 µM) | relative viability ([2]; first compound 0.01 µM) | relative viability ([2]; first compound 0.03162 µM) | relative viability ([2]; first compound 0.1 µM) | relative viability ([2]; first compound 0.3162 µM) | relative viability ([2]; first compound 1 µM) | relative viability (BI-2536 + Lapatinib; first compound 0.01 µM) | relative viability (BI-2536 + Lapatinib; first compound 0.03162 µM) | relative viability (BI-2536 + Lapatinib; first compound 0.1 µM) | relative viability (BI-2536 + Lapatinib; first compound 0.3162 µM) | relative viability (BI-2536 + Lapatinib; first compound 1 µM) | relative viability (BI-2536 + Alpelisib; first compound 0.01 µM) | relative viability (BI-2536 + Alpelisib; first compound 0.03162 µM) | relative viability (BI-2536 + Alpelisib; first compound 0.1 µM) | relative viability (BI-2536 + Alpelisib; first compound 0.3162 µM) | relative viability (BI-2536 + Alpelisib; first compound 1 µM) |
| --- | --- | --- | --- | --- | --- | --- | --- | --- | --- | --- | --- | --- | --- | --- | --- | --- | --- | --- | --- | --- |
| HCC-78 | 0.711 | 0.696 | 0.549 | 0.699 | 0.653 | 0.456 | 0.461 | 0.463 | 0.418 | 0.499 | 0.403 | 0.885 | 0.814 | 0.39 | 0.18 | 0.357 | 0.295 | 0.379 | 0.211 | 0.164 |
| HCC-366 | 0.333 | 0.381 | 0.378 | 0.301 | 0.373 | 0.358 | 0.361 | 0.394 | 0.322 | 0.461 | 1.06 | 0.682 | 0.04 | 0.0163 | 0.0221 | 0.469 | 0.344 | 0.273 | 0.0093 | 0.0141 |
| HCC-827 | 0.282 | 0.367 | 0.333 | 0.288 | 0.35 | 0.825 | 0.9 | 0.831 | 0.817 | 0.942 | 0.209 | 0.117 | 0.176 | 0.178 | 0.157 | 0.934 | 1.03 | 0.867 | 0.282 | 0.243 |
| HOP-62 | 0.202 | 0.238 | 0.222 | 0.208 | 0.203 | 0.618 | 0.767 | 0.598 | 0.39 | 0.713 | 0.965 | 0.99 | 0.705 | 0.142 | 0.135 | 1.04 | 1.06 | 0.922 | 0.176 | 0.104 |
| IA-LM | – | – | – | – | – | 1.1 | 0.923 | 0.852 | 1.03 | 1.1 | 0.699 | 0.639 | 0.408 | 0.139 | 0.0816 | 0.729 | 0.652 | 0.588 | 0.0728 | 0.0917 |
| LC-2-ad | 0.715 | 0.774 | 0.809 | 0.776 | 0.864 | 0.619 | 0.768 | 0.668 | 0.755 | 0.698 | 0.995 | 0.715 | 0.121 | 0.127 | 0.131 | 0.521 | 0.348 | 0.0935 | 0.0735 | 0.123 |
| LCLC-97TM1 | 0.226 | 0.233 | 0.195 | 0.259 | 0.211 | 0.682 | 1.03 | 0.561 | 0.61 | 0.814 | 0.919 | 0.737 | 0.114 | 0.13 | 0.117 | 0.197 | 0.219 | 0.214 | 0.129 | 0.141 |
| LCLC-103H | – | 0.786 | 0.694 | 0.761 | 0.716 | – | 0.83 | 0.769 | 0.745 | 0.838 | – | – | – | – | – | 1.05 | 0.925 | 0.929 | 0.556 | 0.125 |
| LK-2 | 0.379 | 0.246 | 0.265 | 0.201 | 0.407 | 0.451 | 0.263 | 0.36 | 0.165 | 0.327 | 0.883 | 0.81 | 0.336 | 0.163 | 0.199 | 1.14 | 0.318 | 0.374 | 0.222 | 0.282 |
| LOU-NH91 | 0.794 | 0.849 | 0.793 | 0.735 | 0.875 | 0.89 | 0.935 | 0.763 | 0.814 | 1.06 | 0.794 | 0.756 | 0.663 | 0.284 | 0.291 | 0.764 | 0.602 | 0.657 | 0.359 | 0.317 |
| NCI-H441 | 0.226 | 0.222 | 0.233 | 0.222 | 0.252 | 0.64 | 0.839 | 0.881 | 0.881 | 0.851 | – | – | – | – | – | 0.613 | 0.235 | 0.148 | 0.168 | 0.178 |
| NCI-H522 | 0.74 | 0.598 | 0.686 | – | 0.633 | 0.736 | 0.902 | 0.995 | – | 0.79 | – | – | – | – | – | – | – | – | – | – |
| NCI-H1299 | – | – | – | – | – | – | – | – | – | – | 0.933 | 0.933 | 0.69 | 0.291 | 0.235 | 0.952 | 1.15 | 1 | 0.278 | 0.339 |
| NCI-H1563 | – | – | – | – | – | – | – | – | – | – | 0.906 | 0.938 | 0.832 | 0.568 | 0.638 | 0.858 | 0.933 | 0.928 | 0.598 | 0.583 |
| NCI-H1648 | 0.53 | 0.551 | 0.548 | 0.476 | 0.519 | 0.455 | 0.536 | 0.319 | 0.348 | 0.437 | – | – | – | – | – | – | – | – | – | – |
| NCI-H1650 | 0.377 | 0.43 | 0.435 | 0.423 | 0.347 | 0.571 | 0.508 | 0.658 | 0.57 | 0.555 | 0.775 | 0.649 | 0.176 | 0.151 | 0.124 | – | – | – | – | – |
| NCI-H1703 | – | – | – | – | – | – | – | – | – | – | 0.956 | – | 0.323 | 0.174 | 0.113 | 0.347 | 0.247 | 0.279 | 0.0951 | 0.123 |
| NCI-H1792 | – | 0.683 | 0.42 | 0.534 | 0.515 | – | – | – | – | – | 0.93 | 0.751 | 1.09 | 0.186 | 0.0746 | 0.786 | 0.804 | 0.643 | 0.34 | 0.134 |
| NCI-H2228 | – | – | – | – | – | 0.543 | 0.608 | 0.587 | 0.589 | 0.578 | 1.38 | 0.629 | 0.207 | 0.165 | 0.166 | 0.899 | 0.373 | 0.193 | 0.211 | 0.202 |
| NCI-H2342 | 0.686 | 0.694 | 0.759 | 0.668 | 0.78 | 0.742 | 0.917 | 0.783 | 0.658 | 0.763 | – | – | – | – | – | – | – | – | – | – |
| SW 900 | 0.425 | 0.407 | 0.429 | 0.504 | 0.467 | 0.515 | 0.624 | 0.515 | 0.433 | 0.559 | – | – | – | – | – | – | – | – | – | – |
